Reference: PubChem BioAssay (NCI)
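Results reflect a 48-hour exposure of cells in 96-well plates to compound at five concentrations. The concentration for full growth arrest is given as TGI.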

Tests used:
Test in all cases: NCI anticancer screen, dose series, 48 h
[1] = system: 786-0 renal
[2] = system: A549 NSCLC
[3] = system: ACHN renal
[4] = system: CAKI-1 renal
[5] = system: CCRF-CEM leukemia
[6] = system: COLO 205 colon
[7] = system: DLD-1 colon
[8] = system: DMS 114 small cell lung
[9] = system: DMS 273 small cell lung
[10] = system: EKVX NSCLC
[11] = system: HCC-2998 colon
[12] = system: HCT-15 colon
[13] = system: HL-60(TB) leukemia
[14] = system: HOP-18 NSCLC
[15] = system: HOP-62 NSCLC
[16] = system: HT29 colon
[17] = system: IGROV1 ovarian
[18] = system: K-562 leukemia
[19] = system: KM12 colon
[20] = system: KM20L2 colon
[21] = system: LOX IMVI melanoma
[22] = system: LXFL 529 NSCLC
[23] = system: M14 melanoma
[24] = system: MALME-3M melanoma
[25] = system: MOLT-4 leukemia
[26] = system: NCI-H226 lung
[27] = system: NCI-H23 lung
[28] = system: NCI-H460 lung
[29] = system: NCI-H522 lung
[30] = system: OVCAR-3 ovarian
[31] = system: OVCAR-4 ovarian
[32] = system: OVCAR-5 ovarian
[33] = system: OVCAR-8 ovarian
[34] = system: RPMI-8226 leukemia
[35] = system: RXF 393 renal
[36] = system: SF-268 CNS
[37] = system: SF-295 CNS
[38] = system: SF-539 CNS
[39] = system: SK-MEL-2 melanoma
[40] = system: SK-MEL-28 melanoma
[41] = system: SK-MEL-5 melanoma
[42] = system: SK-OV-3 ovarian
[43] = system: SN12C renal
[44] = system: SNB-19 CNS
[45] = system: SNB-75 CNS
[46] = system: SNB-78 CNS
[47] = system: SR leukemia
[48] = system: SW-620 colon
[49] = system: TK-10 renal
[50] = system: U251 CNS
[51] = system: UACC-257 melanoma
[52] = system: UACC-62 melanoma
[53] = system: UO-31 renal

Measured: TGI

NC(N)=N/N=C/c1c[nH]c2ccccc12
> 100 µM: all assays above
